Source: ChEMBL document CHEMBL5465560, “Selectivity Literature for EUbOPEN Chemogenomic Library” (2024)
Each block holds one compound with its values, some of them ahead of it.

Legend:
[1] = biological target: Mast/stem cell growth factor receptor Kit (Homo sapiens, UniProt P10721); experiment: Selectivity interaction (Kinase panel (33PanQinase(R) Activity Assay)) EUB0000877a KIT
[2] = biological target: 5-hydroxytryptamine receptor 2B (Homo sapiens, UniProt P41595); experiment: Selectivity interaction (GPCR panel (PDSP screen)) EUB0000311b HTR2B; settings: at 10 µM
Sequence of 5-hydroxytryptamine receptor 2B (P41595 whole entry): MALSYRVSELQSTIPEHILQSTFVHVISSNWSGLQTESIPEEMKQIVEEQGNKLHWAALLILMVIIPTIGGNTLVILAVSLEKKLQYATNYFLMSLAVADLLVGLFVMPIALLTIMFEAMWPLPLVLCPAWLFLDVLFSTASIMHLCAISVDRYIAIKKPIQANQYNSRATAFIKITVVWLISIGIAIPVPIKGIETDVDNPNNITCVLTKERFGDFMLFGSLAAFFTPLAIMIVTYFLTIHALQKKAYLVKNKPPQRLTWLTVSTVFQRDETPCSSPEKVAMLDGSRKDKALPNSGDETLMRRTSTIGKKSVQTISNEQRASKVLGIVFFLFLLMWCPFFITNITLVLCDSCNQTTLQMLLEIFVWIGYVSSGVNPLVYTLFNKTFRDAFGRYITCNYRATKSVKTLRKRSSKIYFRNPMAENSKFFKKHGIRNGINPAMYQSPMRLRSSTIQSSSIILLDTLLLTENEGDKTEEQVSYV

[3] = biological target: Tyrosine-protein kinase SYK (Homo sapiens, UniProt P43405); experiment: Selectivity interaction (SelectScreen profiling (Invitrogen)) EUB0000607a SYK; settings: at 2 µM
[4] = biological target: T1, Protein kinase C iota type (Homo sapiens) (UniProt P41743); experiment: Selectivity interaction (Upstate Kinase Profiler service (Millipore)) EUB0000056c PRKCI; settings: at 1 µM
T1 sequence (whole entry): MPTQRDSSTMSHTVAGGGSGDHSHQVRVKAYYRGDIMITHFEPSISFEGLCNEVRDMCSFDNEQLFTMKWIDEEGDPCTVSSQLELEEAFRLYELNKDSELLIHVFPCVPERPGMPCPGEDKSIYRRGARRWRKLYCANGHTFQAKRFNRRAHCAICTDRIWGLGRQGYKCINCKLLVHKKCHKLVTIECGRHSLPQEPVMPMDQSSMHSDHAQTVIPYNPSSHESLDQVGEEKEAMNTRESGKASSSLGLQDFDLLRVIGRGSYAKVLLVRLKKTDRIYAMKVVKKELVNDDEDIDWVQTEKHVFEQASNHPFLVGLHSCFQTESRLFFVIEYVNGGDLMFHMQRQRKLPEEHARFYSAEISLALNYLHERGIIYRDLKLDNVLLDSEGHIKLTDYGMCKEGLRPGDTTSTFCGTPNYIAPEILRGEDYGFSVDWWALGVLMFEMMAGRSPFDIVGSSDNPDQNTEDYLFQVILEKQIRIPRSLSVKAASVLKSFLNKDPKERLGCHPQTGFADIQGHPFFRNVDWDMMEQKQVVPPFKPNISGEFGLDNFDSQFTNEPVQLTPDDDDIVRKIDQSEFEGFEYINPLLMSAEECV

[5] = biological target: T2, Serine/threonine-protein kinase D2 (Homo sapiens) (UniProt Q9BZL6); experiment: Selectivity interaction (ActivX KiNativ screen (kinase selectivity in THP-1 cell lysates)) EUB0000639a PRKD2; type: subcellular; settings: lysate
T2 sequence (whole entry): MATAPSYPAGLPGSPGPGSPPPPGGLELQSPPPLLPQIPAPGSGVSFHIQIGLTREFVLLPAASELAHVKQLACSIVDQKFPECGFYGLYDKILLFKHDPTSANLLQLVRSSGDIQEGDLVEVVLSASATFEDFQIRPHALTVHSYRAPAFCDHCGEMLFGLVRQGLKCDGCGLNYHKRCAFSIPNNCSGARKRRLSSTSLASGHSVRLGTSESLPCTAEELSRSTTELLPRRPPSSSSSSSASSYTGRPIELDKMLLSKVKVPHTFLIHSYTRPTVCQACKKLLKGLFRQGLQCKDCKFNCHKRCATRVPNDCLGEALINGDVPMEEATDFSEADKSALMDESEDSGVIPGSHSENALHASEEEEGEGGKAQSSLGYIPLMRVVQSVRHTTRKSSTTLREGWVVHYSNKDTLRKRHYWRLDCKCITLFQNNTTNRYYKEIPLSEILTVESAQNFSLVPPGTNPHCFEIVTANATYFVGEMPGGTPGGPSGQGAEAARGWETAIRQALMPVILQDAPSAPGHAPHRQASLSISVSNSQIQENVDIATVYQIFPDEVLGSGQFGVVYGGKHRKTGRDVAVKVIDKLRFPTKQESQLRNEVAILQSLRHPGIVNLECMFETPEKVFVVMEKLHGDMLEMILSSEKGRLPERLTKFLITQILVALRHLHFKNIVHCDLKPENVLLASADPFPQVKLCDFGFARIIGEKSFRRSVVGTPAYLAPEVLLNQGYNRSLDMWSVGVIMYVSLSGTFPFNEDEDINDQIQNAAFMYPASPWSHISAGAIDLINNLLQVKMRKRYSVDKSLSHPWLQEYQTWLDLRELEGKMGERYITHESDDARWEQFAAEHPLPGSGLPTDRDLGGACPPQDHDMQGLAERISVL

[6] = biological target: Maternal embryonic leucine zipper kinase (Homo sapiens) (UniProt Q14680); experiment: Selectivity interaction (KinomeScan (DiscoverX)) EUB0000595a MELK; settings: at 10 µM
Sequence of Maternal embryonic leucine zipper kinase (Homo sapiens) (Q14680 whole entry, looked up): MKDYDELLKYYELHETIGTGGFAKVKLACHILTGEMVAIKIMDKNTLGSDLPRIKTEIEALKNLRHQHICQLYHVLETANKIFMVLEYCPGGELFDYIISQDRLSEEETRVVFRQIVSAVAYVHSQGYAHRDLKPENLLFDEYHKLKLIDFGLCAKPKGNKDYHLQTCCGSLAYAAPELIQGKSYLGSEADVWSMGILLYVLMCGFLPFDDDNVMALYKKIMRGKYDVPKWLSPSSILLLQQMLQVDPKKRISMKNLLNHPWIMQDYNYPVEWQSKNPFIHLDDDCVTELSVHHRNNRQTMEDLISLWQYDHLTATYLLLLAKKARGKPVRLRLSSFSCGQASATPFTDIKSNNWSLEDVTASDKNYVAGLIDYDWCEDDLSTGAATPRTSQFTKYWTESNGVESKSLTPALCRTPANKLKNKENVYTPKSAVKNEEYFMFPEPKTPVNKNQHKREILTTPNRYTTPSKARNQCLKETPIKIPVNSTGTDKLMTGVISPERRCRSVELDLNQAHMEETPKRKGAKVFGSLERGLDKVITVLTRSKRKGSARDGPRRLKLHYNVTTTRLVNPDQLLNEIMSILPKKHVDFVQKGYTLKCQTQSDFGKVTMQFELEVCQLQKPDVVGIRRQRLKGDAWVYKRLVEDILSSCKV

[7] = biological target: Serine/threonine-protein kinase PLK2 (Homo sapiens, UniProt Q9NYY3); experiment: Selectivity interaction (KinomeScan (DiscoverX)) EUB0000045b PLK2
Sequence of Serine/threonine-protein kinase PLK2 (Q9NYY3 whole entry, looked up): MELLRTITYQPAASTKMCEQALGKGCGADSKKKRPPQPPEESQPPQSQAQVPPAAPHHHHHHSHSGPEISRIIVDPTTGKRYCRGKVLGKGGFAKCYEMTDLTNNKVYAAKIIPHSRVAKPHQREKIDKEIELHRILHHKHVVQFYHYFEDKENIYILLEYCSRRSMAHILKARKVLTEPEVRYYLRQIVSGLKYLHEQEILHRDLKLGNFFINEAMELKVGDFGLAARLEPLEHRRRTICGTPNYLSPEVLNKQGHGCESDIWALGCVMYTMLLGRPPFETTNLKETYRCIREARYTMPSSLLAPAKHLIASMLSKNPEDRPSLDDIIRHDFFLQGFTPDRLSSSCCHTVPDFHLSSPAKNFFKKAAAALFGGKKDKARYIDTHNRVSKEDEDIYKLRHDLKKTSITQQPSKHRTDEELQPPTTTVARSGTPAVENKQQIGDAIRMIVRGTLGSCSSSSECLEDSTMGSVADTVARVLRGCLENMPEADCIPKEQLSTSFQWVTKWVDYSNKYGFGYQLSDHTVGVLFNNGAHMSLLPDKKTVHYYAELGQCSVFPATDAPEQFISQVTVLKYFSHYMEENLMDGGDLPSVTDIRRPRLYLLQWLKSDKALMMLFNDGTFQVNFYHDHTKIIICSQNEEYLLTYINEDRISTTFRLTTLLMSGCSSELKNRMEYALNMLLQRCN

[8] = biological target: T3, Ephrin type-A receptor 1 (Homo sapiens) (UniProt P21709); experiment: Selectivity interaction (KinomeScan (DiscoverX)) EUB0000229b EPHA1; settings: at 10 µM
T3 sequence (whole entry): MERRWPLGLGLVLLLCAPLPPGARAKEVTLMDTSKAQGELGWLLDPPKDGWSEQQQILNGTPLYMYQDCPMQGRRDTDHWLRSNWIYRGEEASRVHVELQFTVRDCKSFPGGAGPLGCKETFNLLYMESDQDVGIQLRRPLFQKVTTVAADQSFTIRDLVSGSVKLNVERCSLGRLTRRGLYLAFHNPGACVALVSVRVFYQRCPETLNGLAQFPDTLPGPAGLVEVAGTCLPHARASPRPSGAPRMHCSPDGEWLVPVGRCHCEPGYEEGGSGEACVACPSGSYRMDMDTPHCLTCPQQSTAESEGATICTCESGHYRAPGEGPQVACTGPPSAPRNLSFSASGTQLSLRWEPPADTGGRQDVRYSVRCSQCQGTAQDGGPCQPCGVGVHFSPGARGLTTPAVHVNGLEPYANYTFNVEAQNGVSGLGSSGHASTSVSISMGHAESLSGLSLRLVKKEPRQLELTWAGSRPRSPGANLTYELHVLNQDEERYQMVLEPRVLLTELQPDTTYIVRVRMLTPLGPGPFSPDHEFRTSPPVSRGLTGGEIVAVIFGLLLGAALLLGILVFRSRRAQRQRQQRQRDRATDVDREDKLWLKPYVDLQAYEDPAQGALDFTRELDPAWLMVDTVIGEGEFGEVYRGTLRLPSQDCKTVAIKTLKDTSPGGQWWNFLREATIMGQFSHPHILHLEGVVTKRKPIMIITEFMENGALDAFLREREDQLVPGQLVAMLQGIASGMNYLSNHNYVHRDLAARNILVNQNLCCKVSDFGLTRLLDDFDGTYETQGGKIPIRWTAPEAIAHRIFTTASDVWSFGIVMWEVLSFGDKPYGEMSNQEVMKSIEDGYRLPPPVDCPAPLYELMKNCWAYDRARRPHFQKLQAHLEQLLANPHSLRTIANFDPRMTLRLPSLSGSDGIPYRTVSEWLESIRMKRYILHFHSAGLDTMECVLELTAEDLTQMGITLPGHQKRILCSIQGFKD

Sequence of Mast/stem cell growth factor receptor Kit (P10721 whole entry): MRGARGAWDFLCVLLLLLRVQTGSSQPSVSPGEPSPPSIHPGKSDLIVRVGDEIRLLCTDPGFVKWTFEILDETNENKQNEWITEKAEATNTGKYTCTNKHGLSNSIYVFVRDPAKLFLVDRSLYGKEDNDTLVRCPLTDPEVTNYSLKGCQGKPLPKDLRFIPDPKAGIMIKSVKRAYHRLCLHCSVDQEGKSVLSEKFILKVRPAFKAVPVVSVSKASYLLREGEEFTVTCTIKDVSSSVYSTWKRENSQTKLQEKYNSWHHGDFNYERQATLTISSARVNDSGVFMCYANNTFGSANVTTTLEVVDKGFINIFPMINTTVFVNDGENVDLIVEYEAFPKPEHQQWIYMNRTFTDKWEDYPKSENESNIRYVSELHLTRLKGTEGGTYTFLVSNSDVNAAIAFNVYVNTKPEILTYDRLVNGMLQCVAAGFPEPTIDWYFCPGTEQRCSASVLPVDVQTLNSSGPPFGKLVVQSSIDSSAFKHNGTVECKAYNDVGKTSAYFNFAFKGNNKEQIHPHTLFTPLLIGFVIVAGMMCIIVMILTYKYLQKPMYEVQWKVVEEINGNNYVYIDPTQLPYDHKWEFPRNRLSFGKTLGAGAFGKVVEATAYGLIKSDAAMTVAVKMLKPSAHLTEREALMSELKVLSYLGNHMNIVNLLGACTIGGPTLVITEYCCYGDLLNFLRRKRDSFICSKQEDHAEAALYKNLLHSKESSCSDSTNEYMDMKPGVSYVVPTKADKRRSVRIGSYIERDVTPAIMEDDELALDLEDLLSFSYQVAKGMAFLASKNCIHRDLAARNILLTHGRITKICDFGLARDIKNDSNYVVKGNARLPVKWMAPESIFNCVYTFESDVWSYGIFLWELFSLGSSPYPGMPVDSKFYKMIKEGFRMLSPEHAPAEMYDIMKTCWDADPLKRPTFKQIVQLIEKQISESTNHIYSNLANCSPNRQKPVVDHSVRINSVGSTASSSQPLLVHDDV

IC50 [1]: > 10 µM
SMILES: CCC(=O)N1CC[C@H](Nc2ncnc3c2CN(c2cnc(OC)c(C(F)(F)F)c2)CC3)C1 [LENIOLISIB]

% of inhibition [2]: 32.5%
SMILES: CCc1ccccc1C(=O)Nc1n[nH]c2c(C)c(F)c(C3C(C#N)=C(C)N(C)C(C)=C3C#N)cc12 [BAY-3827]

SMILES: CNC(=O)Nc1ccc(-c2nc(N3CC4CCC(C3)O4)c3cnn(C4CCC5(CC4)OCCO5)c3n2)cc1
% of inhibition [3]: 1%

% of inhibition [4]: -10%
SMILES: Cc1ccc(-c2ccc3c(ccc4sc5c(c43)NC[C@@H](C)NC5=O)n2)cn1

% of inhibition ([5]; at 0.01 µM): 1.1%
% of inhibition ([5]; at 0.04 µM): 12.3%
% of inhibition ([5]; at 0.2 µM): 6.8%
% of inhibition ([5]; at 1 µM): 11.9%
% of inhibition ([5]; at 5 µM): 5.6%
SMILES: CC[C@@H]1[C@H](F)C(=O)N[C@@H]1COc1nccc2cc(C(N)=O)c(OC)cc12 [ZIMLOVISERTIB]

SMILES: COCC(=O)NC/C=C/c1ccc2ncnc(Nc3ccc(Oc4ccc(C)nc4)c(C)c3)c2c1 [CP-724714]
% of control [6]: 92%

SMILES: C=CC(=O)Nc1cc(-n2c(=O)ccc3cnc4ccc(-c5ccc(NS(C)(=O)=O)cc5)cc4c32)ccc1C
% of control ([7]; at 1 µM): 72%
% of control ([7]; at 10 µM): 86%

SMILES: COc1cc(N(C)c2ccnc3ccc(C(F)(F)F)cc23)cc(OC)c1OC
% binding [8]: 90%
